Assay type in all cases: cell-based, human
In one assay the test system is lung cancer A549 cells. The assay is described as follows: MTT antiproliferation assay, A549. Particulars: means ± SD, n = 3. The text has this: (§1) The target hybrids A1–A15 were screened for their antiproliferation activities against five human cancer cell lines (lung cancer A549 cells, breast cancer MCF-7 and MDA-MB-231 cells, colon cancer HCT116 cells and ovarian cancer SK-OV-3 cells) in vitro by the standard MTT method, and 5-fluorouracil (5-FU) and ART were coassayed as controls. […] Therefore, the most promising hybrid, A8, was chosen for further exploration of the preliminary mechanism of MCF-7 cell antiproliferation.
(§2) Cytotoxicity of test compounds against five different tumor cell lines were evaluated using an MTT assay in vitro. Cells were seeded into 96-well plates at a density of 5 × 10^4 cells per well and stabilized at 37 °C with 5% CO2 for 24 h. Compounds A1–A15, ART and 5-FU were added to each well at various concentrations and then the cells were incubated for 48 h. The MTT solution (100 μL 0.5 mg/mL^−1) was added to each well, and the cells were incubated for another 4 h. Then, 150 μL DMSO was added to each well and the absorbance of samples was measured at 492 nm. The IC50 values were calculated according to Logit method after getting the inhibitory rate.

Assay [1] deals with breast cancer MCF-7 cells. The assay is described as follows: MTT antiproliferation assay, MCF-7. Particulars: means ± SD, n = 3.
From the text: as §1, §2

For assay [2], the system named is colon cancer HCT116 cells. Kind of assay: MTT antiproliferation assay, HCT116. The conditions noted are these: means ± SD, n = 3.
From the text: as §1, §2

For assay [3], the system named is ovarian cancer SK-OV-3 cells. Kind of assay: MTT antiproliferation assay, SK-OV-3. The conditions noted are these: means ± SD, n = 3.
From the text: as §1, §2

Assay [4] relates to breast cancer MDA-MB-231 cells. Kind of assay: MTT antiproliferation assay, MDA-MB-231. The conditions noted are these: means ± SD, n = 3.
From the text: as §1, §2

A further assay has as its system MCF-7 cells. Kind of assay: Lipid peroxidation (MDA) detection. Particulars: MCF-7, added to A8 treatment. From the text:
We also determined the effect of A8 on the expression of GSH and MDA (lipid peroxidation).
Lipid peroxidation assay kit (Beyotime, Shanghai, China) was used to detect malonaldehyde (MDA), together with GSH level assay, present in samples, as per the manufacturer’s instruction with slight modifications.

Another assay deals with GPX4. The assay is described as follows: Western blotting, GPX4 expression. The conditions noted are these: MCF-7, added to A8 treatment. The method, then:
We examined the effect of A8 on the expression of GPX4 as well, which is vital in preventing ferroptosis. […] Thus, we concluded that A8 induced the accumulation of ROS and lipid peroxidation and suppressed GSH levels and the expression of GPX4, thereby leading to the induction of ferroptosis.
MCF-7 cells were seeded at a density of 4 × 10^5 cells per well and treated with various concentrations of compound A8 (0, 2.5, 5 and 10 μM) for 48 h. After this, cells were collected and washed twice with ice-cold DPBS. The pellets were resuspended in a total protein extraction buffer (20 mM HEPES, 350 mM NaCl, 20% glycerol, 1% NP-40, 1 mM MgCl2, 0.5 mM EDTA, 0.1 mM EGTA, 0.1 mM DTT, 0.1 mM PMSF) containing a protease inhibitor cocktail and incubated on ice for 30 min with intermittent mixing. The protein concentration was measured using the Bradford reagent (Bio-Rad Laboratories Inc., Hercules, CA, USA). An equal amount (20 μg) of protein was loaded on 10% polyacrylamide gels and transferred to a nitrocellulose membrane. After blocking with 5% skimmed milk, the membrane was incubated at 4 °C overnight with specific primary antibodies. The membrane was washed and incubated at room temperature for 1 h with secondary antibodies conjugated with horseradish peroxidase (HRP). Finally, the immunoblot was developed for visualization using a chemiluminescence kit. […]

With `O=c1[nH]cc(F)c(=O)[nH]1` [5FU, 5-fluorouracil, reference compound], the IC50 with lung cancer A549 cells (Homo sapiens, A549, 48 h) is over 30 µM; in assay [1] (Homo sapiens, MCF7, 48 h) it was 26.1 ± 0.87 µM; in assay [2] (Homo sapiens, HCT-116, 48 h), 18.4 ± 1.14 µM; in assay [3] (Homo sapiens, SK-OV-3, 48 h), over 30 µM; in assay [4] (Homo sapiens, MDA-MB-231, 48 h) it was 27.7 ± 1.23 µM.
Take `Cc1ccc(Nc2nnc(CNC(=O)CCC(=O)OC3OC4OC5(C)CCC6C(C)CCC(C3C)C46OO5)o2)cc1` (centres unmarked) [A2]: the IC50 in the assay on lung cancer A549 cells (48 h) was over 30 µM; in assay [1] (48 h) it was 4.26 ± 0.17 µM; in assay [2] (48 h), 14.8 ± 1.77 µM; in assay [3] (48 h) it was over 30 µM; in assay [4] (48 h), 4.89 ± 1.58 µM.
As to `Cc1ccc(Nc2nnc(CNC(=O)CCC(=O)OC3OC4OC5(C)CCC6C(C)CCC(C3C)C46OO5)o2)c(C)c1` (centres unmarked) [A15], the IC50 (with lung cancer A549 cells (48 h); in assay [1] (48 h); in assay [2] (48 h); in assay [3] (48 h); in assay [4] (48 h)) was over 30 µM each time.
As for `CC1CCC2C(C)C(OC(=O)CCC(=O)NCc3nnc(Nc4ccc(C(F)(F)F)cc4)o3)OC3OC4(C)CCC1C32OO4` (centres unmarked) [A5], the IC50 (with lung cancer A549 cells (48 h); in assay [1] (48 h); in assay [2] (48 h); in assay [3] (48 h); in assay [4] (48 h)) was over 30 µM each time.
Consider `CC1CCC2C(C)C(OC(=O)CCC(=O)NCc3nnc(Nc4cc(Br)ccc4Br)o3)OC3OC4(C)CCC1C32OO4` (centres unmarked) [A7], for which the IC50 (in the assay with lung cancer A549 cells (48 h); in assay [1] (48 h); in assay [2] (48 h); in assay [3] (48 h); in assay [4] (48 h)) was over 30 µM in each case.
With `CC1CCC2C(C)C(OC(=O)CCC(=O)NCc3nnc(Nc4ccc(Br)cc4)o3)OC3OC4(C)CCC1C32OO4` (centres unmarked) [A11], the IC50 (in the assay on lung cancer A549 cells (48 h); in assay [1] (48 h); in assay [2] (48 h); in assay [3] (48 h); in assay [4] (48 h)) was over 30 µM each time.
With `CC1CCC2C(C)C(OC(=O)CCC(=O)NCc3nnc(Nc4ccc(Cl)cc4)o3)OC3OC4(C)CCC1C32OO4` (centres unmarked) [A6], the IC50 (in the assay on lung cancer A549 cells (48 h); in assay [1] (48 h); in assay [2] (48 h); in assay [3] (48 h); in assay [4] (48 h)) was over 30 µM in each case.
With `Cc1cc(C)cc(Nc2nnc(CNC(=O)CCC(=O)OC3OC4OC5(C)CCC6C(C)CCC(C3C)C46OO5)o2)c1` (centres unmarked) [A13], the IC50 with lung cancer A549 cells (48 h) was over 30 µM; in assay [1] (48 h) it was 9.72 ± 0.11 µM; in assay [2] (48 h) it was over 30 µM; in assay [3] (48 h) it was over 30 µM; in assay [4] (48 h), over 30 µM.
As for `CC1CCC2C(C)C(OC(=O)CCC(=O)NCc3nnc(Nc4ccc(C(C)(C)C)cc4)o3)OC3OC4(C)CCC1C32OO4` (centres unmarked) [A10], the IC50 in the assay with lung cancer A549 cells (48 h) was over 30 µM; in assay [1] (48 h), 11.1 ± 1.28 µM; in assay [2] (48 h), over 30 µM; in assay [3] (48 h), over 30 µM; in assay [4] (48 h), over 30 µM.
As for `CC1CCC2C(C)C(OC(=O)CCC(=O)NCc3nnc(Nc4ccc(OC(F)(F)F)cc4)o3)OC3OC4(C)CCC1C32OO4` (centres unmarked) [A1], the IC50 with lung cancer A549 cells (48 h) is over 30 µM; in assay [1] (48 h), 5.2 ± 1.38 µM; in assay [2] (48 h), over 30 µM; in assay [3] (48 h), over 30 µM; in assay [4] (48 h), over 30 µM.
With `C[C@@H]1CC[C@H]2[C@@H](C)C(=O)O[C@@H]3O[C@@]4(C)CC[C@@H]1[C@]32OO4` [ART, Artemisinin], the IC50 with lung cancer A549 cells (Homo sapiens, A549, 48 h) was 27.2 ± 0.67 µM; in assay [1] (Homo sapiens, MCF7, 48 h), over 30 µM; in assay [2] (Homo sapiens, HCT-116, 48 h) it was over 30 µM; in assay [3] (Homo sapiens, SK-OV-3, 48 h) it was over 30 µM; in assay [4] (Homo sapiens, MDA-MB-231, 48 h), over 30 µM.
For `COc1ccc(Nc2nnc(CNC(=O)CCC(=O)OC3OC4OC5(C)CCC6C(C)CCC(C3C)C46OO5)o2)cc1` (centres unmarked) [A14], the IC50 with lung cancer A549 cells (48 h) is over 30 µM; in assay [1] (48 h), 6.86 ± 0.73 µM; in assay [2] (48 h), over 30 µM; in assay [3] (48 h) it was over 30 µM; in assay [4] (48 h), 19.4 ± 0.91 µM.
As to `CCOC(=O)c1ccc(NC2CCCCC2)c(N)c1` [Fer-1, ferrostatin-1, reference compound], in the assay with MCF-7 cells, the “effect on A8-induced lipid peroxide accumulation (in words)” value is “reversed lipid peroxide accumulation”. In addition, the “effect on A8-suppressed GPX4 expression (in words)” value in the assay with GPX4 was “restored the expression of GPX4”.
With `CCOc1ccccc1Nc1nnc(CNC(=O)CCC(=O)OC2OC3OC4(C)CCC5C(C)CCC(C2C)C35OO4)o1` (centres unmarked) [A3], the IC50 with lung cancer A549 cells (48 h) was over 30 µM; in assay [1] (48 h), 6.82 ± 0.25 µM; in assay [2] (48 h), over 30 µM; in assay [3] (48 h) it was over 30 µM; in assay [4] (48 h) it was over 30 µM.
On to `CC1CCC2C(C)C(OC(=O)CCC(=O)NCc3nnc(Nc4ccccc4F)o3)OC3OC4(C)CCC1C32OO4` (centres unmarked) [A9], for which the IC50 with lung cancer A549 cells (48 h) is over 30 µM; in assay [1] (48 h), 8.89 ± 0.39 µM; in assay [2] (48 h), over 30 µM; in assay [3] (48 h), over 30 µM; in assay [4] (48 h), over 30 µM.
With `CC1CCC2C(C)C(OC(=O)CCC(=O)NCc3nnc(Nc4c(F)cccc4F)o3)OC3OC4(C)CCC1C32OO4` (centres unmarked) [A4], the IC50 (in the assay on lung cancer A549 cells (48 h); in assay [1] (48 h); in assay [2] (48 h); in assay [3] (48 h); in assay [4] (48 h)) was over 30 µM in each case.

The record behind these values is paper PMC9779727, “Identification of Novel Artemisinin Hybrids Induce Apoptosis and Ferroptosis in MCF-7 Cells” (International Journal of Molecular Sciences, 2022).
